Reference: US20230132823A1, “BI-FUNCTIONAL COMPOUNDS AND METHODS FOR TARGETED UBIQUITINATION OF ANDROGEN RECEPTOR” (MONTELINO THERAPEUTICS, INC., priority 2020, published 2023)

Tested on: 22Rv1
Test: 22Rv1 cell proliferation assay (Experimental Example 1, cell count)
Format: cell-based
Conditions: Homo sapiens, 22Rv1, read-out: 22Rv1 cell count decrease at 10 μM for 48 hours; 10 μM (method: four days); read-out: 22Rv1 cell count decrease at 10 μM
Experimental: The human prostate cancer cell line, 22Rv1 has been reported to express a high level of AR-V7. […] Standard culture media was RPMI-1640 supplemented with 10% fetal bovine serum. The test compound initially was dissolved in DMSO at 50 mM. This stock solution was then diluted as needed for the indicated concentrations. […]
In the Table: (+)—the cell count decreased between 0 and 20%; (++)—the cell count decreased […]; (+++)—the cell count decreased by more than 50%.

O=C(COc1c(-c2csc(N3CCOCC3)n2)ccc(F)c1F)NCCCCCCCCNc1cccc2c1C(=O)N(C1CCC(=O)NC1=O)C2=O (stereo not shown) [Example 2, 2-(2,3-difluoro-6-(2-morpholinothiazol-4-yl)phenoxy)-N-(8-((2-(2,6-dioxopiperidin-3-yl)-1,3-dioxoisoindolin-4-yl)amino)octyl)acetamide]
inhibition at 10 µM: 0 to 20%

O=C(COc1c(-c2csc(N3CCOCC3)n2)ccc(F)c1F)NCCOCCOCCNc1cccc2c1C(=O)N(C1CCC(=O)NC1=O)C2=O (stereo not shown) [Example 4, 2-(2,3-difluoro-6-(2-morpholinothiazol-4-yl)phenoxy)-N-(2-(2-(2-((2-(2,6-dioxopiperidin-3-yl)-1,3-dioxoisoindolin-4-yl)amino)ethoxy)ethoxy)ethyl)acetamide]
inhibition at 10 µM: 0 to 20%

O=C(COc1c(-c2csc(N3CCOCC3)n2)ccc(F)c1F)NCCOCCOCCOCCNc1cccc2c1C(=O)N(C1CCC(=O)NC1=O)C2=O (stereo not shown) [Example 5, 2-(2,3-difluoro-6-(2-morpholinothiazol-4-yl)phenoxy)-N-(2-(2-(2-(2-((2-(2,6-dioxopiperidin-3-yl)-1,3-dioxoisoindolin-4-yl)amino)ethoxy)ethoxy)ethoxy)ethyl)acetamide]
inhibition at 10 µM: 0 to 20%

O=C(COc1c(-c2csc(N3CCOCC3)n2)ccc(F)c1F)NCCOCCOCCOCCOCCNc1cccc2c1C(=O)N(C1CCC(=O)NC1=O)C2=O (stereo not shown) [Example 6, 2-(2,3-difluoro-6-(2-morpholinothiazol-4-yl)phenoxy)-N-(14-((2-(2,6-dioxopiperidin-3-yl)-1,3-dioxoisoindolin-4-yl)amino)-3,6,9,12-tetraoxatetradecyl)acetamide]
inhibition at 10 µM: 0 to 20%

O=C(COc1cccc2c1C(=O)N(C1CCC(=O)NC1=O)C2=O)NCCCCCCNC(=O)COc1c(-c2csc(N3CCOCC3)n2)ccc(F)c1F (stereo not shown) [Example 7, 2-(2,3-difluoro-6-(2-morpholinothiazol-4-yl)phenoxy)-N-(6-(2-((2-(2,6-dioxopiperidin-3-yl)-1,3-dioxoisoindolin-4-yl)oxy)acetamido)hexyl)acetamide]
inhibition at 10 µM: 0 to 20%

O=C(COc1cccc2c1C(=O)N(C1CCC(=O)NC1=O)C2=O)NCCCCCCCCNC(=O)COc1c(-c2csc(N3CCOCC3)n2)ccc(F)c1F (stereo not shown) [Example 8, 2-(2,3-difluoro-6-(2-morpholinothiazol-4-yl)phenoxy)-N-(8-(2-((2-(2,6-dioxopiperidin-3-yl)-1,3-dioxoisoindolin-4-yl)oxy)acetamido)octyl)acetamide]
inhibition at 10 µM: 0 to 20%

O=C(COc1cccc2c1C(=O)N(C1CCC(=O)NC1=O)C2=O)NCCCCCCCCCCNC(=O)COc1c(-c2csc(N3CCOCC3)n2)ccc(F)c1F (stereo not shown) [Example 9, 2-(2,3-difluoro-6-(2-morpholinothiazol-4-yl)phenoxy)-N-(10-(2-((2-(2,6-dioxopiperidin-3-yl)-1,3-dioxoisoindolin-4-yl)oxy)acetamido)decyl)acetamide]
inhibition at 10 µM: 0 to 20%

O=C(COc1cccc2c1C(=O)N(C1CCC(=O)NC1=O)C2=O)NCCOCCOCCNC(=O)COc1c(-c2csc(N3CCOCC3)n2)ccc(F)c1F (stereo not shown) [Example 10, 2-(2,3-difluoro-6-(2-morpholinothiazol-4-yl)phenoxy)-N-(2-(2-(2-(2-((2-(2,6-dioxopiperidin-3-yl)-1,3-dioxoisoindolin-4-yl)oxy)acetamido)ethoxy)ethoxy)ethyl)acetamide]
inhibition at 10 µM: 0 to 20%

O=C(COc1cccc2c1C(=O)N(C1CCC(=O)NC1=O)C2=O)NCCOCCOCCOCCNC(=O)COc1c(-c2csc(N3CCOCC3)n2)ccc(F)c1F (stereo not shown) [Example 11, 2-(2,3-difluoro-6-(2-morpholinothiazol-4-yl)phenoxy)-N-(1-((2-(2,6-dioxopiperidin-3-yl)-1,3-dioxoisoindolin-4-yl)oxy)-2-oxo-6,9,12-trioxa-3-azatetradecan-14-yl)acetamide]
inhibition at 10 µM: 0 to 20%

O=C1CCC(N2C(=O)c3cccc(NCCOCCOCCOc4c(-c5csc(N6CCOCC6)n5)ccc(F)c4F)c3C2=O)C(=O)N1 (stereo not shown) [Example 12, 4-((2-(2-(2-(2,3-difluoro-6-(2-morpholinothiazol-4-yl)phenoxy)ethoxy)ethoxy)ethyl)amino)-2-(2,6-dioxopiperidin-3-yl)isoindoline-1,3-dione]
inhibition at 10 µM: 0 to 20%
